Assay results: ChEMBL document CHEMBL5537194, “Tight-Binding Small-Molecule Carboxylesterase 2 Inhibitors Reduce Intracellular Irinotecan Activation” (J Med Chem, 2024)

What was measured:
CES2 (cocaine esterase) [1] = biological target: T1, CES2 (cocaine esterase) (Homo sapiens, UniProt O00748); assay: in vitro; conditions: recombinant CES2, probe CPT-11 (conversion to SN-38)
T1 sequence (O00748 whole entry): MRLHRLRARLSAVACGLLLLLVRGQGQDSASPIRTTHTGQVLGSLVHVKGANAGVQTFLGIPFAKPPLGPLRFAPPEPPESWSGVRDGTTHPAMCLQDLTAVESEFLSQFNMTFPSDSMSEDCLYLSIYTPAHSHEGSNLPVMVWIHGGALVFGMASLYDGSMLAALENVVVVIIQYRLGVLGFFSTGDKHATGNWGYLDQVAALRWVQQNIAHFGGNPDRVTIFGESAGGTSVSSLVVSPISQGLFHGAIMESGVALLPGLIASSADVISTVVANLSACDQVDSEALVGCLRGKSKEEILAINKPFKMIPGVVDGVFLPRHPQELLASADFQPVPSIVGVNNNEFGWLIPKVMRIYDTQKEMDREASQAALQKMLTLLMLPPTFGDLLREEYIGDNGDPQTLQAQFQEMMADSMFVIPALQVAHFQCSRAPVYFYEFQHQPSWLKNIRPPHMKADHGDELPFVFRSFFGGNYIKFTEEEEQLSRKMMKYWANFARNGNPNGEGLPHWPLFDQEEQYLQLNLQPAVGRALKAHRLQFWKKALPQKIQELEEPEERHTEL

CES2 (cocaine esterase) [2] = biological target: T1, CES2 (cocaine esterase); assay: Inhibition of human recombinant CES2 activity assessed as fluorescence of the AP product using Benz-AP as substrate by measuring residual activity at 40 uM relative to control; conditions: recombinant CES2, probe Benz-AP
Cocaine esterase = biological target: T2, Cocaine esterase (Homo sapiens, UniProt O00748); assay: Inhibition of human recombinant CES2 activity assessed as fluorescence of the AP product using Benz-AP as substrate
T2 sequence (O00748 whole entry): T1 sequence (O00748 whole entry)

[3] = Inhibition of human CES1 activity at 40 uM measured after 20 mins
PANC-1 = assay: Cytotoxicity against human PANC-1 cells assessed as cell viability incubated for 14 days by crystal violet-based clonogenic assay; conditions: PANC-1, 336 h

inhibition at 10 min, 12 µM (CES2 (cocaine esterase) [1]) | activity at 40 µM (CES2 (cocaine esterase) [2]) | IC50 (Cocaine esterase) | Compound | IC50 [3] | IC50 (PANC-1)
31% | 13% | < 0.01 µM | COc1cc2c(cc1OC)C(C)N(C(=O)c1cc3c(s1)-c1ccccc1S(=O)(=O)C3)CC2 (configuration not stated) |  | 
94% | 1.3% | 0.066 µM | CCOc1ccc2ncc(S(=O)(=O)c3ccc(OC)cc3)c(N3CCC4(CC3)OCCO4)c2c1 |  | 
 | 0.2% | 0.018 µM | Cc1ccc(CN2Cc3cc4ccc(C)c(C)c4nc3OC2=O)o1 | 0.061 µM | 
63% | 3% | < 0.01 µM | Cc1ccc(Nc2nc(C(=O)NCc3ccccc3)cc3occc23)cc1 |  | 

The next lines start with the compound.

Compound | inhibition at 10 min, 12 µM (CES2 (cocaine esterase) [1]) | activity at 40 µM (CES2 (cocaine esterase) [2]) | IC50 (Cocaine esterase) | IC50 [3] | IC50 (PANC-1)
CC(C)CN1C(=O)CCc2cc(NC(=O)Cc3cccc(F)c3)ccc21 | 95% | -0.17% | 0.177 µM |  | 
O=C(CSc1cn(CC(=O)N2CCCC2)c2ccccc12)Nc1ccc(F)cc1F | 91% | 0.9% | < 0.01 µM |  | 
CC(C)c1ccccc1OC(=O)NCCc1ccc2ccccc2c1 |  |  |  | 0.023 µM | 
CCc1c2c(nc3ccc(OC(=O)N4CCC(N5CCCCC5)CC4)cc13)-c1cc3c(c(=O)n1C2)COC(=O)[C@]3(O)CC [IRINOTECAN] |  |  |  |  | 11 µM
CCn1c(=O)c2sc(N3CCCC3)nc2n(CC(=O)Nc2cccc(Cl)c2C)c1=O | 51% | 37% |  |  | 
